Literature values, collected in patent publication US10155994B2, “Methods of detecting DDR2 mutations” (QUEST DIAGNOSTICS INVESTMENTS INCORPORATED, priority 2012, dated 2018).

Details: current daily oral dosing; from Bradeen et al. Blood 2006

achievable plasma trough concentration	SMILES
100 nM	Cc1nc(Nc2ncc(C(=O)Nc3c(C)cccc3Cl)s2)cc(N2CCN(CCO)CC2)n1 [dasatinib]
2000 nM	Cc1cn(-c2cc(NC(=O)c3ccc(C)c(Nc4nccc(-c5cccnc5)n4)c3)cc(C(F)(F)F)c2)cn1 [nilotinib]
